Residue numbers refer to the chain shown, from its start.
How the values were obtained:
Type in all cases: binding
P-Rex1 PH domain [1] = biological target: T1, P-Rex1 PH domain (Homo sapiens, UniProt Q8TCU6, K368A); experiment: differential scanning fluorimetry (SYPRO orange); conditions: 50 mM HEPES pH 8, 150 mM NaCl, 2 mM DTT; 1 mM ligand
T1 construct: gene PREX1; PH domain, residues 245-408; 10xHis-MBP tag removed with TEV; E. coli Rosetta (DE3) pLysS

P-Rex2 PH domain [2] = biological target: T2, P-Rex2 PH domain (Homo sapiens, UniProt Q70Z35, K254A); experiment: differential scanning fluorimetry (SYPRO orange); conditions: 50 mM HEPES pH 8, 150 mM NaCl, 2 mM DTT; 1 mM ligand
T2 construct: gene PREX2; PH domain, residues 219-364 for assays (219-377 for crystal 6BNM); 10xHis-MBP tag removed with TEV; E. coli Rosetta (DE3) pLysS
T2 sequence (Q70Z35 219-364 K254A): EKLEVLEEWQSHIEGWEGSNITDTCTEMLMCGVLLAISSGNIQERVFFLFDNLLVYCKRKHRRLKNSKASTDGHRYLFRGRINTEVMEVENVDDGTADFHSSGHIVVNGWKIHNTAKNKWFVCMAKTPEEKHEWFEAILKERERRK

P-Rex2 PH domain [3] = biological target: T3, P-Rex2 PH domain (Homo sapiens, UniProt Q70Z35, K337A); experiment: differential scanning fluorimetry (SYPRO orange); conditions: 50 mM HEPES pH 8, 150 mM NaCl, 2 mM DTT; 1 mM ligand
T3 construct: gene PREX2; PH domain, residues 219-364 for assays (219-377 for crystal 6BNM); 10xHis-MBP tag removed with TEV; E. coli Rosetta (DE3) pLysS
T3 sequence (Q70Z35 219-364 K337A): T2 sequence (Q70Z35 219-364 K254A) with A36K, K119A

P-Rex2 PH domain [4] = biological target: T4, P-Rex2 PH domain (Homo sapiens, UniProt Q70Z35); experiment: differential scanning fluorimetry (SYPRO orange)
T4 construct: gene PREX2; PH domain, residues 219-364 for assays (219-377 for crystal 6BNM); 10xHis-MBP tag removed with TEV; E. coli Rosetta (DE3) pLysS
T4 sequence (Q70Z35 219-364): T2 sequence (Q70Z35 219-364 K254A) with A36K

P-Rex2 PH domain [5] = biological target: T4, P-Rex2 PH domain; experiment: isothermal titration calorimetry; conditions: 20 mM HEPES pH 8, 150 mM NaCl, 25 °C
P-Rex1 PH domain [6] = biological target: T5, P-Rex1 PH domain (Homo sapiens, UniProt Q8TCU6, K280A); experiment: differential scanning fluorimetry (SYPRO orange); conditions: 50 mM HEPES pH 8, 150 mM NaCl, 2 mM DTT; 1 mM ligand
T5 construct: gene PREX1; PH domain, residues 245-408; 10xHis-MBP tag removed with TEV; E. coli Rosetta (DE3) pLysS
T5 sequence (Q8TCU6 245-408 K280A): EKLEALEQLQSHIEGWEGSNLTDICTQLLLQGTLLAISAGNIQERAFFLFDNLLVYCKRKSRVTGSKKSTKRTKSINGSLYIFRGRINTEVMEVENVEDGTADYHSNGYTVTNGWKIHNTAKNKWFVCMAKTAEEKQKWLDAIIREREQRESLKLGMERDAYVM

T1 sequence (Q8TCU6 245-408 K368A): as the sequence (Q8TCU6 245-408 K280A) above, with A36K, K124A counted along it

## O=P(O)(O)OC1[C@H](O)[C@H](OP(=O)(O)O)C(OP(=O)(O)O)[C@H](OP(=O)(O)O)[C@H]1O (stereo partly drawn) [Ins(1,3,4,5)P4, D-myo-Inositol-1,3,4,5-tetraphosphate]
P-Rex1 PH domain [1]
  ΔTm at 1 mM: P-Rex1 variants display the same trends in binding deficiency
P-Rex2 PH domain [2]
  ΔTm at 1 mM: mutation of any one of the PIP3-binding residues drastically reduces the temperature shift
P-Rex2 PH domain [3]
  ΔTm at 1 mM: mutation of any one of the PIP3-binding residues drastically reduces the temperature shift
P-Rex2 PH domain [4]
  ΔTm at 1000 µM: 11 °C
P-Rex2 PH domain [5]
  Kd: 240 ± 140 nM
P-Rex1 PH domain [6]
  ΔTm at 1 mM: P-Rex1 variants display the same trends in binding deficiency

From paper PMC7337056, “Structural and biochemical characterization of the pleckstrin homology domain of the RhoGEF P-Rex2 and its regulation by PIP3” (Journal of Structural Biology: X, 2018)
